Laboratory results taken from article PMC4467156, “A new chemical inhibitor of angiogenesis and tumorigenesis that targets the VEGF signaling pathway upstream of Ras” (Oncotarget, 2015).

Experiments:
HMEC-GFP cells = experiment: Scratch wound closure assay, HMEC-GFP; type: cell-based, human; settings: Homo sapiens; wound closure after 24 h, 10% FCS, tested 3.125 μM to 100 μM
Text: In order to adapt the endothelial scratch wounding assay to the constraints of high throughput screening, we decided to use an endothelial cell line rather than primary cultures for the sake of reproducibility. Since angiogenesis is triggered by capillary endothelial cells, we selected the HMEC-1 cell line which consists of human dermal microvascular endothelial cells stably expressing SV40 […] antigen. We infected this cell line with GFP-encoding retroviral particles and selected one clone (thereafter named HMEC-GFP) that presented a high level of fluorescence and a strong proliferation rate (doubling time in the presence of serum: 22 h). We controlled that GFP expression was stable over at least 50 passages and that these cells still expressed endothelial markers such as VE-cadherin and CD31. In a standard assay, HMEC-GFP cells were grown until confluence in 96-well plates in the presence of serum, scratched with the multi-tip dispenser of the HTS automat, gently rinsed twice to eliminate detached cells and cell debris that could liberate inflammatory and potentially angiogenic cytokines, and incubated for 24 h in the presence of serum and the compounds to be tested. Each well was photographed at time 0 h (after wounding) and 24 h under a motorized epifluorescence microscope and the digitized images were analyzed using Image J to determine the percentage of wound closure (Figure 1A, 1B). Under our standard conditions, the closure rate was 72 ± 4% in the positive controls and 27 ± 4.% in the negative controls.
(§1) Confluent cell monolayers were wounded with a plastic pipet tip, washed gently with phosphate buffer saline (PBS) and treated with complete media containing molecules, as indicated. Cells were placed at 37°C into the incubator and photographed at indicated times. Quantitation of closure of the monolayer was performed using the NIH Image J program (http://rsbweb.nih.gov/ij/). Results are expressed as percentage of wound closure at t = 24 h as compared to the initial wound at t = 0 h.

Water solubility = type: physicochemical
3T3-GFP cells = experiment: Scratch wound closure assay, 3T3-GFP; type: cell-based; settings: wound closure after 24 h, 10% FCS, tested 3.125 μM to 100 μM
Text: Using this assay, we screened the academic library of the University of Grenoble, which is composed of 1360 original molecules. Setting the threshold of significant responses at 75% of the maximal inhibition, we identified 80 inhibitory molecules. At this stage, we reasoned that molecules that would affect the cytoskeleton dynamics or the adhesion properties of any cell type would be positive in this assay but would not represent good candidates for further development. We thus decided to perform a secondary counterscreen of the first 80 selected compounds on GFP-expressing 3T3 fibroblasts (3T3-GFP) using the same scratch assay. We then focused our interest on the 5 molecules that inhibited more strongly HMEC-GFP than 3T3-GFP wound healing. […] We synthesized a series of 30 analogs and tested them at various concentrations both on HMEC-GFP and 3T3-GFP cells. […] Dansyl and naphthalimide aromatic groups, found in COB223 and COB227 respectively, appeared very efficient. The presence of the diaminomethyl group on dansyl is critical for the activity of COB223 as shown by the lower efficiency of COB235 (IC50 is 8 times higher than that of COB223). COB223 and COB227 contain a tert-butyloxycarbonyl function (BOC group) as a second hydrophobic group. Replacement of BOC by an amino group decreased the efficiency and the specificity (compare 05-102-L-B09 vs 05-06-L-D03, or COB227 vs COB228).
as §1

HUVEC cells [1] = experiment: Scratch assay on HUVEC with or without mitomycin C; type: cell-based, human; settings: HUVEC pretreated 24 h with 2 μg/mL mitomycin C
Experimental: as §1, with “0 h. […]” for “0 h.”
www.impactjournals.com/oncotarget/ Oncotarget, Supplementary Materials 2015 […]
Figure S1: Effect of COB223 on endothelial cell migration. (A) Scratch assay: Confluent HUVEC cells were pretreated for 24 h without (CTL) or with 2 μg/mL of mitomycin C before a wound was made in the cell monolayer. After wounding, cells were incubated at 37°C in the absence or the presence of 25 μM COB223. Wound closure was measured after 24 h and 48 h of incubation as described in Material and Methods. […]
(B) Boyden chamber assay: The technique is described in Material and Methods. We measured the passage of fluorescently labeled HUVEC cells through a 3 μm-porous membrane in response to fetal calf serum used as a chemo-attractant. […] The Figure represents the mean fluorescence ± SD of duplicate determinations after 24 h or 48h of incubation from two independent experiments. […]

HUVEC cells [2] = experiment: 3H-thymidine incorporation, HUVEC; type: cell-based, human; settings: mitomycin C-treated cells vs untreated, data not shown
Experimental: Cells were treated with molecules in complete medium. After 22 h, 1 μCi per well H^3 thymidine was added for 2 hours. Cells are then fixed by 10% trichloroacetic acid and harvested with 0.2N NaOH, 1% SDS. Radioactivity was measured in a beta counter.

Structure (SMILES) | IC50 (HMEC-GFP cells) [µM] | water solubility (Water solubility) | melting point [°C] | IC50 (3T3-GFP cells) [µM] | wound healing (HUVEC cells [1]) | 3H-thymidine incorporation (HUVEC cells [2])
CN(C)c1cccc2c(S(=O)(=O)NCCOCCOCCNS(=O)(=O)c3cccc4c(N(C)C)cccc34)cccc12 [COB295, 5-Dimethylamino-N-(2-[2-{2-(5-(dimethylamino)naphthalene-1-sulfonamido)ethoxy}ethoxy]ethyl)naphthalene-1-sulfonamide] | 5 | lack of water solubility | – | – | – | –
CN(C)c1cccc2c(S(=O)(=O)NCCCNS(=O)(=O)c3cccc4c(N(C)C)cccc34)cccc12 [Compound 05-06-F11, 1,3-bis [5-(Dimethylamino)naphthalene-1-sulfonamido] diaminopropane] | 15 | lack of water solubility | 90 | 40 | – | –
CO[C@@]12[C@H](COC(N)=O)C3=C(C(=O)C(C)=C(N)C3=O)N1C[C@@H]1N[C@@H]12 [mitomycin C, reference compound] | – | – | – | – | slowed down | complete inhibition
